Data set [1] relates to HBV DNA in HepG2.2.15 cells. The data set is described as follows: In vitro cell HBV DNA inhibitory activity in HepG2.2.15 cells. The following applies: Hepatitis B virus, 144 h, 6 days treatment, intracellular capsid HBV DNA by qPCR, read-out: EC50, anti-HBV activity in HepG2.2.15 cells. The data set is classed as cell-based. How it is done:
A bottle of HepG2.2.15 (Wuhan Institute of Virology) or HepAD38 cells in good exponential growth state was taken, washed once by adding 5 mL PBS, and then thereto was added 3 mL trypsin. After digesting at room temperature for 5 min, 2 mL trypsin was discarded, and then the sample was placed in a cell culture incubator and digested for 10 min. The cells were taken out and observed under a microscope (whether the cells were individually round and there was no adhesion between the cells). 10 mL complete medium was added to terminate the digestion. After pipetting into a single cell suspension, 10 μL of the cell suspension was taken out for cell counting with a cell counter, and then diluted with a complete medium and adjusted to a cell density of 1*10^5 cells/mL. […]
Compounds dissolved in DMSO were subjected to two-fold gradient dilution (10 concentrations in total) with complete medium. […] After lysing at room temperature for 10 min, DNA was extracted, and HBV DNA in the intracellular viral capsid was measured by real-time fluorescence quantitative PCR. The inhibition rate was calculated based on the Ct value, and the EC50 value was calculated by the four-parameter method.
In general terms: Real-time PCR tracks product formation cycle by cycle.

Data set [2] in a line: In vitro cytotoxicity (CCK-8). The conditions noted are these: human, HepG2.2.15 cells. Format: cell-based. How it is done:
A bottle of HepG2.2.15 cells (Wuhan Institute of Virology) in good exponential growth state was taken, washed once by adding 5 mL PBS, and then thereto was added 2 mL trypsin. The sample was digested in a cell culture incubator, and taken out from time to time and observed under a microscope. When the cells just fell off, 1 mL trypsin was discarded. The residual liquid was placed in a cell culture incubator at 37° C. and digested for 8-15 min. The cells were taken out and observed under a microscope (whether the cells were individually round and there was no adhesion between the cells). 5 mL MEM medium was added for cell resuspension. The cells were then subjected to cell counting with a cell counter, diluted with a complete medium, and adjusted to a cell density of 2*10^5 cells/mL. Then the cells were seeded at 100 μL/well in a 96-well plate with a multi-channel pipette (the 96-well plate was coated with 50 μg/mL Collagen I solution in advance), and cultured in a constant temperature CO2 incubator for 24 h. The cells were treated by drug administration, and fresh medium containing the compound was used to replace the spent medium every 3 days. […] After 1 to 2 hours, the absorbance was detected with microplate reader at 450 nm, and the inhibition rate and the CC50 were calculated.

The target of a further data set is CYP2C19 (Homo sapiens (Human), UniProt P33261). The data set is described as follows: CYP450 enzyme inhibition study, CYP2C19. Format: in vitro ADME. How it is done:
500 μL of a final incubation system contains 50 μL of human liver microsomes (protein concentration: 0.2 mg/mL, Corning), 1 μL of mixed CYP450 specific substrates (CYP1A2, CYP 2B6, CYP 2C9, CYP2C19, CYP 2D6, and CYP 3A4), 398 μL PBS buffer (pH7.4), 1 μL specific positive inhibitor (positive control group) or the test compound (formulated with acetonitrile), and 50 μL NADPH+MgCl2. Duplicate incubation systems of 0.5 mL each were formulated for each CYP450 subtype. A total volume of 450 μL of a uniformly mixed solution of the substrate and the enzyme was formulated in each tube, and the solution and NADPH were pre-incubated at 37° C. for 5 minutes, respectively. Then 50 μL of the mixed solution of NADPH+MgCl2 was added for reaction. 50 μL of the reaction solution was taken out at 30 minutes, and the reaction was terminated with 300 μL of ice acetonitrile containing an internal standard. In addition, two control groups of 500 μL each without NADPH were prepared in parallel as a negative control group.
Sample pre-treatment: To 50 μL of the incubated sample was added 300 μL of ice acetonitrile containing an internal standard, and then precipitated. After vortexing for 5 minutes, the sample was centrifugated (12000 rpm, 4° C.) for 10 minutes. 75 μL of the supernatant was pipetted, and 75 μL of ultrapure water was added thereto for dilution and mixed uniformly. […]

Data set [3] in a line: Stability of liver microsomes in vitro, rat. Format: in vitro ADME. The procedure: 300 μL of a final incubation system contains 30 μL of liver microsomes (protein concentration: 0.15 mg/mL, Corning), 30 μL NADPH+MgCl2, 3 μL substrate (formulated with acetonitrile), and 237 μL PBS buffer. Duplicate incubation systems of 0.3 mL each were formulated for each species. A total volume of 270 μL of a uniformly mixed solution of the substrate and the enzyme was formulated in each tube, the solution and NADPH were pre-incubated at 37° C. for 5 minutes, respectively. Then 30 μL of the mixed solution of NADPH+MgCl2 was added for reaction. 50 μL of the reaction solution was taken out at 0, 10, 30, and 60 mins, and the reaction was terminated with 300 μL of ice acetonitrile containing an internal standard.
Sample pre-treatment: To 50 μL of the incubated sample was added 300 μL of ice acetonitrile containing diazepam as an internal standard and then precipitated. After vortexing for 5 minutes, the sample was centrifugated (12000 rpm, 4° C.) for 10 minutes. 75 μL of the supernatant was pipetted into a 96-well plate, and then diluted with 75 μL ultrapure water and mixed uniformly. 0.5 μL of the resulting solution was injected and analyzed by LC-MS/MS.
For orientation: Microsomes from liver hold many membrane-bound enzymes, among them those of drug oxidation.

A value given as a limit tells only on which side of the number the result lay.

Chain of CYP2C19 (P33261 whole entry): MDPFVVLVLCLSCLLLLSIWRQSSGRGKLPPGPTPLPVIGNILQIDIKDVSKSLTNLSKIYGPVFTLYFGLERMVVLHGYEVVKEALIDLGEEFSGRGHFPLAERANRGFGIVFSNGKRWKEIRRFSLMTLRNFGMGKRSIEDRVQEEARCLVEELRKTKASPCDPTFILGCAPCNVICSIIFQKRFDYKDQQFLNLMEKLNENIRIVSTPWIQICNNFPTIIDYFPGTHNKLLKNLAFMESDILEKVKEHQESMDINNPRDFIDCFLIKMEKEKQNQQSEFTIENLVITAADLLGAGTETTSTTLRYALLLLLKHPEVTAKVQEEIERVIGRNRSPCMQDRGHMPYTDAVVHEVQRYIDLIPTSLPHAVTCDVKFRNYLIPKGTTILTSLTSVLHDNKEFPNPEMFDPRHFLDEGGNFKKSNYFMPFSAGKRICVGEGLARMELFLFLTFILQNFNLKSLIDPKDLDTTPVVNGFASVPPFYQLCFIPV

By EC50 is commonly meant the concentration giving half of the maximal effect. What is called CC50 is the concentration giving 50% cytotoxicity. As usually defined, the IC50 is the concentration at which inhibition is half-maximal. Read a low IC50 as inhibition by little substance. For `Cc1[nH]c(C(=O)C(=O)N[C@@H](C)C(F)(F)F)c(C)c1C(=O)Nc1ccc(F)c(C#N)c1` [Example 1, (S)—N-(3-cyano-4-fluorophenyl)-2,4-dimethyl-5-(2-oxo-2-((1,1,1-trifluoroprop-2-yl)amino)acetyl)-1H-pyrrole-3-carboxamide], in data set [1], the EC50 came out at 0.0174 µM. The CC50 at 6 days in data set [2] is > 100 µM. Moreover, at CYP2C19, the IC50 was determined as 20 µM. Also, the “Remaining (%) of rat liver microsomes at 60 min” value in data set [3] stood at 99%.

For the origin of these results see patent US12240811B2, “N-heterocyclic five-membered ring-containing capsid protein assembly inhibitor, pharmaceutical composition and uses thereof” (CHIA TAI TIANQING PHARMACEUTICAL GROUP CO., LTD., priority 2019, dated 2025).
